Literature values in patent US10456335B2, “Oral hygiene compositions and methods” (Carson Laboratories, I.P., Inc., priority 2008, dated 2019).

Conditions: eight hour time weighted average

OSHA permissible exposure limit: 1 ppm
SMILES: OO [hydrogen peroxide]
